Reference: patent US20020137209A1, “Methods of dissociating nongenotropic from genotropic activity of steroid receptors” (priority 2000, published 2002)

Columns and labels:
[1] = tested on: vertebral osteoblast and osteocyte apoptosis; experiment: Osteoblast and osteocyte apoptosis in vertebrae of ovariectomized mice (TUNEL); format: in vivo; conditions: data not shown
[2] = tested on: osteocytic cell line MLO-Y4; experiment: Apoptosis of MLO-Y4 osteocytic cells (trypan blue); format: cell-based
ERK1/2 = experiment: ERK phosphorylation in MLO-Y4 cells (Western blot); format: cell-based; conditions: MLO-Y4 cells
Procedure: Western blot analysis. The phosphorylation status of ERK1/2 was analyzed by immunoblotting using a mouse monoclonal antibody recognizing tyrosine phosphorylated ERK1/2, or a rabbit polyclonal antibody recognizing total ERK1/2, followed by incubation with either an anti-mouse or an anti-rabbit antibody conjugated with horseradish peroxidase (Santa Cruz Biotechnology).

[3] = tested on: embryonic fibroblasts derived from Src−/− mice; experiment: Apoptosis in embryonic fibroblasts from Src−/− mice; format: cell-based; conditions: ER- and AR-expressing, also lack yes and Fyn
Procedure: Cell lysates were obtained and proteins were analyzed by Western blot analysis using anti-ERK1/2 or anti-phospho-ERK1/2 (p-ERK1/2) antibodies. […] After 30 min, etoposide was added and apoptosis was assayed 6 hours later as in FIG. 1B. […] RT-PCR was performed as described in the experimental procedures. C-E. HeLa cells were transfected with Nuc-EGFP and with expression vectors encoding the full length ERα or its E domain, or the AR alone (C, left panel) or together with a dn MEK (C, right panel); a Src mutant lacking the kinase activity (Src K^−), a Src mutant lacking the SH2 domain (Src ΔSH2), or a Src mutant lacking the SH3 domain (Src ΔSH3) (D); or with ERα together with wt Shc, or the dn Shc mutants Y239F/Y240F/Y317F (Shc FFF), Y317F (Shc YYF) or Y239F/Y240F (Shc FFY) (E). Bars represent means±SD of triplicate determinations. *p<0.05 versus cells cultured without steroids, by ANOVA.
Quantification of apoptotic cells in vitro. Apoptotic cells were quantified either by trypan blue staining or by direct visualization of changes in nuclear morphology (in the case of transfected HeLa cells), as previously described (Plotkin,L. et al. (1999). J.
RT-PCR analysis of the ERs and AR in embryonic fibroblasts. […]

[4] = tested on: lactoferrin mRNA in the uterus; conditions: WT mice, E2 20 ng/g body weight for 28 days; stated as known; cited from earlier work
[5] = tested on: calvaria-derived murine osteoblastic cells; experiment: Apoptosis of calvaria-derived osteoblastic cells (trypan blue); conditions: 10^−8 M steroid
ERβ = ERβ (Homo sapiens, UniProt Q92731); experiment: Etoposide-induced apoptosis in HeLa cells transfected with ERβ; conditions: HeLa transfected with ERβ
ERβ, sequence (Q92731 whole entry, species assumed): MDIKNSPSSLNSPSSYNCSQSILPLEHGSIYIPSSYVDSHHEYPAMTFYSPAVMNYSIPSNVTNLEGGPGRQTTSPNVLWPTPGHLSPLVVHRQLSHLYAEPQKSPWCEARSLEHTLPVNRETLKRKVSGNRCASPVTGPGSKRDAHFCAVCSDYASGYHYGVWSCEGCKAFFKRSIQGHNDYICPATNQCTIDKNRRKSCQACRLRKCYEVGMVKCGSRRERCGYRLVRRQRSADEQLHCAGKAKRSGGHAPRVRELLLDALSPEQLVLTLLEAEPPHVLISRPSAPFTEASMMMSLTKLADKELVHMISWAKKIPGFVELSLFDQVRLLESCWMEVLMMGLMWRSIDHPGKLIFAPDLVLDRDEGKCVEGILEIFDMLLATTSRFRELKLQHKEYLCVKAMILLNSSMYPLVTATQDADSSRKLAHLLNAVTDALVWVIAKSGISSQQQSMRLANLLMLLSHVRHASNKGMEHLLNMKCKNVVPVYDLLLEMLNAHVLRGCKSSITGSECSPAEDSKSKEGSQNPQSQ

[6] = tested on: HeLa cells transfected with the vector without receptor (empty vector, ev); experiment: Etoposide-induced apoptosis in HeLa cells transfected with empty vector; conditions: 10^−12M to 10^−8 M
[7] = Bone remodeling in mice given doxycycline in drinking water; format: in vivo; conditions: 0.5 mg/ml in drinking water; stated as established
Procedure: Tet-F6 and wild type animals are assessed for bone mass by in vivo DEXA analysis at weekly intervals following the turning on of the transgene or the overiectomy. At the end of the 4-6 week period, both groups of animals are sacrificed and the following determinations made: a) whole body and uterine and mammary gland weights, b) length of the long bones and the width between the periosteal and endosteal bone, c) osteoblastogenesis and osteoclastogenesis in ex vivo cultures of bone marrow cells, d) prevalence of osteoblast/osteocyte and osteoclast apoptosis in sections of vertebrae, e) rate of bone formation and resorption by dynamic histomorphometry and f) compression strength of the vertebrae. An intraperitoneal injection of 30ng/g body weight of oxytetracycline-hydrochloride is administered 8 days and 2 days before sacrificing the animals for the dynamic histomorphometry analysis. It is important to note that the TET ON system is 100-1000 fold less sensitive to tetracycline than it is to doxycycline. […] Therefore, this maneuver should not influence the expression of the transgene, which at this stage will have been turned on with doxycycline.

Structure (SMILES) | prevention of the ovariectomy-induced increase in osteoblast and osteocyte apoptosis [1] | prevention of apoptosis induced by etoposide, dexamethasone or TNFα ([2]; 10^−8 M steroid) | dose-dependent inhibition of etoposide-induced apoptosis compared with calvaria cells ([2]; not shown) | time of maximal effect on phosphorylation of ERKs (ERK1/2) [min] | anti-apoptotic effect in Src−/− fibroblasts (unlike Src+/+ wild type controls) [3] | increase of lactoferrin mRNA in the uterus [4] | prevention of apoptosis induced by etoposide, dexamethasone or TNFα [5] | prevention of etoposide-induced apoptosis (ERβ) | effect on etoposide-induced apoptosis [6] | effect on bone remodeling [7]
C[C@]12CC[C@@H]3c4ccc(O)cc4CC[C@H]3[C@@H]1CC[C@@H]2O [E2, 17β-estradiol] | prevented | prevented apoptosis | identical results | 5 | unresponsive | approximately 5 fold | prevented apoptosis | prevented apoptosis in a dose-dependent manner | Neither E2 nor DHT (10^−12M to 10^−8 M) had an effect | 
C[C@H]1c2cccc(O)c2C(=O)C2=C(O)[C@]3(O)C(=O)C(C(N)=O)=C(O)[C@@H](N(C)C)[C@@H]3[C@@H](O)[C@@H]21 [doxycycline] |  |  |  |  |  |  |  |  |  | no effect on bone remodeling
